Reference: patent publication US20130202614A1, “AUTOTAXIN PATHWAY MODULATION AND USES THEREOF” (B.S.R.C. "ALEXANDER FLEMING", priority 2010, published 2013)

Experiments:
Format in all cases: cell-based, mouse
primary SFs [1] = assay: Synovial fibroblast proliferation assay ([3H]thymidine incorporation); conditions: for LPA responses of wt SFs (LPA-induced proliferation): pre-treated with inhibitor prior to LPA stimulation
Procedure: Primary SFs were isolated from 6-8 week old mice as previously described. Briefly, mouse joint specimens were minced and digested with type IV collagenase. The released cells were grown in Dulbecco's modified Eagle's medium (DMEM) supplemented with fetal bovine serum (FBS) and penicillin-streptomycin. Isolated fibroblasts adhered on culture dishes were maintained under standard conditions (37° C. and 5% CO2) and used for the experiments between the third and fifth passages.
Cells were starved with serum-free medium before treatment due to the presence of lysophospholipids in the serum Starvation medium is supplemented with 0.2% fatty-acid-free BSA. After routine starvation, cells were stimulated with various concentrations of the tested compounds (LPA, LPC, S1P or TNF) as indicated in details below. Where indicated cells were pre-treated with the inhibitors of ERK MAPK, p38 MAPK, JNK and Rho kinase for 3 hours prior to LPA stimulation. At the moment of cell treatment, the culture medium was replaced with fresh serum-free medium containing various concentrations of the tested compounds.
Preconfluent cell cultures were starved overnight, incubated for 24 h with LPA and the rest tested compounds and finally exposed to 0.5 μCi/ml of [^3H]thymidine. Cells were then washed, harvested by trypsinization and blotted on a membrane. The radioactivity of incorporated [^3H]-thymidine was determined by liquid scintillation counting.

BMD macrophages = assay: Macrophage proliferation upon LPA addition; conditions: primary cultures
primary SFs [2] = assay: SF adhesion assay (fibronectin); conditions: LPA stimulation
Procedure: This assay was performed on plates coated with human fibronectin. Briefly, cells were allowed to adhere to the substrate, and unbound cells were removed with sequential washes with PBS. Adhered cells were then stained with crystal violet, solubilized, and their absorbance was determined at 570 nm. The experiment was performed in triplicates.

primary SFs [3] = assay: SF cell migration assay (Boyden chambers); conditions: LPA stimulation
Procedure: Modified Boyden chambers with 8-μm pores (Corning/Costar) were used where the lower surface of the membrane was coated with 10 μg/ml human fibronectin for 2 hours at 37° C. Cells were harvested with trypsin/EDTA, washed with PBS, and resuspended to 1×10^6 cells per ml. The suspension was added to the upper chamber, and the cells were allowed to migrate at 37° C., 5% CO2, for 4 hours. Non-migratory cells were removed from the upper surface of the membrane while migratory cells in the lower compartment of the chambers were washed with PBS and stained with 0.2% crystal violet in 10% ethanol for 10 min. After extensive washing in H2O, the cells were lysed and absorbance was measured at 570 nm with a SPECTRAmax photometer.

primary SFs [4] = assay: SF actin cytoskeleton rearrangement (phalloidin F-actin staining); conditions: phaloidin-F-actin staining
Procedure: Cells were cultured on glass coverslips, grown in the presence of serum to subconfluence, and starved for 24 h by replacing the medium with serum-free medium containing 0.1% bovine serum albumin. Then the cells were treated with LPA and other components in serum-free medium for 4 h, fixed with 4% PFA and stained for F-actin with TRITC-conjugated phalloidin according to the manufacturer's protocol.

primary SFs [5] = assay: SF proinflammatory cytokine secretion (multiplex Luminex ELISA); conditions: especially IL-6
primary SFs [6] = assay: MMP production by SFs (RT-PCR); conditions: MMP-9
Procedure: Total RNA was extracted from subconfluent cultured SFs with the TRIzol reagent (Invitrogen Ltd, Paisley, PA4 9RF, UK Carlsbad, Calif. 92008) according to the manufacturer's instructions. RNA yield and purity were determined spectrophotometrically at 260/280 nm. cDNA synthesis was performed using the MMLV reverse transcriptase (Promega, Madison, Wis., United States Madison, Wis. 53711 USA). In all cases the normalization was performed in relation to the B2m internal control.
SQ PCR was performed by 20-27 cycles of denaturation at 95° C. for 30 s, annealing at 56-60° C. (depending on the Tm of each individual set of primers) for 30 s, and extension at 72° C. for 1 min, in a final volume of 20 μl. The products were separated by electrophoresis on 1.5% agarose gel and stained with ethidium bromide. […] Quantitative real-time PCR was performed using the iCycler Iq Real-Time detection system and the IQ SYBR Green Supermix (Bio-Rad Laboratories, Hercules, Calif., United States), according to the manufacturer's instructions, for one cycle of 95° C. for 3 min, and 42 cycles of denaturation at 95° C. for 30 s and annealing at 56-58° C. for 45 s. […]

BDM macrophages = assay: BMDM cytokine secretion (Luminex); conditions: upon LPA stimulation

Molecule: 1-oleoyl-LPA (18:1)
- proliferation of wt SFs (primary SFs [1]; 3H-thymidine incorporation): stimulated the proliferation
- synergy with TNF on SF proliferation (primary SFs [1]; different concentrations of LPA and/or TNF): synergizes with TNF
- proliferation of macrophages (BMD macrophages): no effects
- SF adhesion (primary SFs [2]): increased
- SF migration (primary SFs [3]): increased
- SF actin cytoskeleton (primary SFs [4]): rearrangements of their actin cytoskeleton
- proinflammatory cytokine secretion from SFs (primary SFs [5]): stimulated proinflammatory cytokine secretion
- production of matrix metaloproteinases (MMPs) by SFs (primary SFs [6]): stimulated
- cytokine secretion from BDM macrophages (BDM macrophages): No differences

Molecule: C[C@@H](N)[C@H]1CC[C@H](C(=O)Nc2ccncc2)CC1 [Hybridoma Y27632]
- LPA responses of wt SFs (LPA-induced proliferation) (primary SFs [1]): inhibited

Molecule: CCCCCCCC/C=C\CCCCCCCC(=O)OC[C@@H](O)COP(=O)([O-])OCC[N+](C)(C)C [LPC, 1-oleoyl-LPC (18:1)]
- proliferation of mRA SFs (primary SFs [1]; 3H-thymidine incorporation): did stimulate the proliferation
- proliferation of wt SFs (primary SFs [1]; 3H-thymidine incorporation): no effects

Molecule: COc1cccc(-c2cc(=O)c3ccccc3o2)c1N [PD98059]
- LPA responses of wt SFs (LPA-induced proliferation) (primary SFs [1]): inhibited

Molecule: C[S+]([O-])c1ccc(-c2nc(-c3ccncc3)c(-c3ccc(F)cc3)[nH]2)cc1 (centres unmarked) [SB203580]
- LPA responses of wt SFs (LPA-induced proliferation) (primary SFs [1]): inhibited
